Assay results: patent US9669001B2, “Antimicrobial composition” (CONVATEC TECHNOLOGIES INC., priority 2008, dated 2017)

Tests used:
Type in all cases: cell-based
P. aeruginosa biofilms [1] = assay: Minimum Biofilm Eradication Concentration (MBEC) method with cyan LED illumination; details: combinations in sterile water, cyan LED lamp; FIG. 4
S. aureus biofilms = assay: Photo-catalytic therapy, in vitro wound biofilm model (pork belly); details: higher doses of RB and light, post-treatment rinse; FIG. 2
P. aeruginosa biofilms [2] = assay: as above

Compound	effect on the action of RB and light against biofilms (P. aeruginosa biofilms [1])	biofilm cell reductions (S. aureus biofilms)	biofilm removal (reduction in P. aeruginosa) (P. aeruginosa biofilms [2]; 25 μM RB, PCT with post-treatment rinse step, FIG. 1)	P. aeruginosa biofilm bacteria cell killing on raising dose (P. aeruginosa biofilms [2]; RB and light dose increased five-fold, no post-treatment rinse, FIG. 1 bars 2 & 4)
O=C(O)CN(CCN(CC(=O)O)CC(=O)O)CC(=O)O [EDTA, ethylene diamine tetraacetic acid]	potentiates the action of RB and light in a concentration-dependent manner	–	–	–
O=C1OC2(c3cc(I)c(O)c(I)c3Oc3c2cc(I)c(O)c3I)c2c(Cl)c(Cl)c(Cl)c(Cl)c21 [Rose Bengal, 4,5,6,7-Tetrachloro-3′,6′-dihydroxy-2′,4′,5′,7′-tetriodo-3H-spiro[isobenzofuran-1,9′-xanthen]-3-one]	–	over 3 log10	2 log	significantly increased reduction
dialkyl dimethyl ammonium chloride [DDAC]	potentiates the action of RB and light in a concentration-dependent manner	–	–	–
